Measured values published in the supplement of paper PMC10307832.

Key:
Test in all cases: relative viability (nuclei count vs DMSO), 5 days (fraction); higher = more cells survive
NCI-H460 = tested on: NCI-H460
Outline: (§1)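 Nuclei were stained with Hoechst during a one-step fixation (final 0.05% Triton X-100, 1% formaldehyde, 1 ug/ml Hoechst) carried out 5 days after dosing, then counted on 4× images. The cells, lung cancer lines in 1536-well plates, had been dosed by pin tool the day after seeding with one drug alone or a fixed anchor-drug dose plus five library-drug doses (not always all listed) in √10 steps. Relative viability is the nuclei count in treated wells divided by that in vehicle wells, and each value is the median of duplicate plates.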

NCI-H3122 = tested on: NCI-H3122
Outline: as §1

SK-MES-1 = tested on: SK-MES-1
Outline: as §1

NCI-H1915 = tested on: NCI-H1915
Outline: as §1

NCI-H522 = tested on: NCI-H522
Outline: as §1

NCI-H520 = tested on: NCI-H520
Outline: as §1

RERF-LC-KJ = tested on: RERF-LC-KJ
Outline: as §1

SW 900 = tested on: SW 900
Outline: as §1

LCLC-103H = tested on: LCLC-103H
Outline: as §1

NCI-H1355 = tested on: NCI-H1355
Outline: as §1

NCI-H661 = tested on: NCI-H661
Outline: as §1

PC-14 = tested on: PC-14
Outline: as §1

LXF-289 = tested on: LXF-289
Outline: as §1

NCI-H1651 = tested on: NCI-H1651
Outline: as §1

NCI-H2347 = tested on: NCI-H2347
Outline: as §1

NCI-H1792 = tested on: NCI-H1792
Outline: as §1

NCI-H727 = tested on: NCI-H727
Outline: as §1

NCI-H596 = tested on: NCI-H596
Outline: as §1

NCI-H322M = tested on: NCI-H322M
Outline: as §1

NCI-H441 = tested on: NCI-H441
Outline: as §1

NCI-H1755 = tested on: NCI-H1755
Outline: as §1

SMILES: COc1nc(C)cnc1NS(=O)(=O)c1cccnc1-c1ccc(-c2nnco2)cc1 [Zibotentan] + CC(=O)Nc1cccc(-n2c(=O)n(C3CC3)c(=O)c3c(Nc4ccc(I)cc4F)n(C)c(=O)c(C)c32)c1 [Trametinib] (partner 0.02 µM)
- relative viability (NCI-H460; first compound 0.08 µM): 0.159
- relative viability (NCI-H460; first compound 0.253 µM): 0.0304
- relative viability (NCI-H460; first compound 0.8 µM): 0.0981
- relative viability (NCI-H460; first compound 2.53 µM): 0.196
- relative viability (NCI-H3122; first compound 0.08 µM): 0.234
- relative viability (NCI-H3122; first compound 0.253 µM): 0.211
- relative viability (NCI-H3122; first compound 0.8 µM): 0.218
- relative viability (NCI-H3122; first compound 2.53 µM): 0.219
- relative viability (SK-MES-1; first compound 0.08 µM): 0.581
- relative viability (SK-MES-1; first compound 0.253 µM): 0.533
- relative viability (SK-MES-1; first compound 0.8 µM): 0.563
- relative viability (SK-MES-1; first compound 2.53 µM): 0.556
- relative viability (NCI-H1915; first compound 0.08 µM): 0.325
- relative viability (NCI-H1915; first compound 0.253 µM): 0.313
- relative viability (NCI-H1915; first compound 0.8 µM): 0.347
- relative viability (NCI-H1915; first compound 2.53 µM): 0.296
- relative viability (NCI-H522; first compound 0.08 µM): 0.732
- relative viability (NCI-H522; first compound 0.253 µM): 0.667
- relative viability (NCI-H522; first compound 0.8 µM): 0.727
- relative viability (NCI-H522; first compound 2.53 µM): 0.856
- relative viability (NCI-H520; first compound 0.08 µM): 0.803
- relative viability (NCI-H520; first compound 0.253 µM): 0.704
- relative viability (NCI-H520; first compound 0.8 µM): 0.631
- relative viability (NCI-H520; first compound 2.53 µM): 0.79
- relative viability (RERF-LC-KJ; first compound 0.08 µM): 0.96
- relative viability (RERF-LC-KJ; first compound 0.253 µM): 0.842
- relative viability (RERF-LC-KJ; first compound 0.8 µM): 0.804
- relative viability (RERF-LC-KJ; first compound 2.53 µM): 0.888
- relative viability (SW 900; first compound 0.08 µM): 0.893
- relative viability (SW 900; first compound 0.253 µM): 0.817
- relative viability (SW 900; first compound 0.8 µM): 0.846
- relative viability (SW 900; first compound 2.53 µM): 0.751
- relative viability (LCLC-103H; first compound 0.08 µM): 0.685
- relative viability (LCLC-103H; first compound 0.253 µM): 0.704
- relative viability (LCLC-103H; first compound 0.8 µM): 0.68
- relative viability (LCLC-103H; first compound 2.53 µM): 0.737
- relative viability (NCI-H1355; first compound 0.08 µM): 0.399
- relative viability (NCI-H1355; first compound 0.253 µM): 0.437
- relative viability (NCI-H1355; first compound 0.8 µM): 0.402
- relative viability (NCI-H1355; first compound 2.53 µM): 0.438
- relative viability (NCI-H661; first compound 0.08 µM): 0.574
- relative viability (NCI-H661; first compound 0.253 µM): 0.495
- relative viability (NCI-H661; first compound 0.8 µM): 0.589
- relative viability (NCI-H661; first compound 2.53 µM): 0.601
- relative viability (PC-14; first compound 0.08 µM): 0.833
- relative viability (PC-14; first compound 0.253 µM): 0.752
- relative viability (PC-14; first compound 0.8 µM): 0.733
- relative viability (PC-14; first compound 2.53 µM): 0.735
- relative viability (LXF-289; first compound 0.08 µM): 0.61
- relative viability (LXF-289; first compound 0.253 µM): 0.622
- relative viability (LXF-289; first compound 0.8 µM): 0.675
- relative viability (LXF-289; first compound 2.53 µM): 0.675
- relative viability (NCI-H1651; first compound 0.08 µM): 0.907
- relative viability (NCI-H1651; first compound 0.253 µM): 0.794
- relative viability (NCI-H1651; first compound 0.8 µM): 0.832
- relative viability (NCI-H1651; first compound 2.53 µM): 0.803
- relative viability (NCI-H2347; first compound 0.08 µM): 0.252
- relative viability (NCI-H2347; first compound 0.253 µM): 0.272
- relative viability (NCI-H2347; first compound 0.8 µM): 0.339
- relative viability (NCI-H2347; first compound 2.53 µM): 0.287
- relative viability (NCI-H1792; first compound 0.08 µM): 0.546
- relative viability (NCI-H1792; first compound 0.253 µM): 0.479
- relative viability (NCI-H1792; first compound 0.8 µM): 0.389
- relative viability (NCI-H1792; first compound 2.53 µM): 0.537
- relative viability (NCI-H727; first compound 0.08 µM): 0.371
- relative viability (NCI-H727; first compound 0.253 µM): 0.415
- relative viability (NCI-H727; first compound 0.8 µM): 0.441
- relative viability (NCI-H727; first compound 2.53 µM): 0.439
- relative viability (NCI-H596; first compound 0.08 µM): 0.801
- relative viability (NCI-H596; first compound 0.253 µM): 0.8
- relative viability (NCI-H596; first compound 0.8 µM): 0.791
- relative viability (NCI-H596; first compound 2.53 µM): 0.714
- relative viability (NCI-H322M; first compound 0.08 µM): 0.501
- relative viability (NCI-H322M; first compound 0.253 µM): 0.5
- relative viability (NCI-H322M; first compound 0.8 µM): 0.519
- relative viability (NCI-H322M; first compound 2.53 µM): 0.561
- relative viability (NCI-H441; first compound 0.08 µM): 0.454
- relative viability (NCI-H441; first compound 0.253 µM): 0.408
- relative viability (NCI-H441; first compound 0.8 µM): 0.544
- relative viability (NCI-H441; first compound 2.53 µM): 0.471
- relative viability (NCI-H1755; first compound 0.08 µM): 0.737
- relative viability (NCI-H1755; first compound 0.253 µM): 0.745
- relative viability (NCI-H1755; first compound 0.8 µM): 0.797
- relative viability (NCI-H1755; first compound 2.53 µM): 0.792
